Assay results published in US6545127B1, “Catalytically active recombinant memapsin and methods of use thereof” (Oklahoma Medical Research Foundation, priority 1999, dated 2003).
Non-standard residues stand in square brackets, D forms with d. Residues, ends and D or L forms follow the SMILES beside them. No end group written: not given here. *: point of attachment. Sta = CC(C)C[C@H](N)[C@@H](O)CC(=O)O; Isovaleryl = CC(C)CC(=O)*

Key:
[1] = test system: memapsin 2 (M2) cleavage of APP in HeLa cells; assay: APP beta-secretase site cleavage in HeLa cells co-transfected with APP and M2 (pulse-chase, immunoprecipitation, SDS-PAGE); type: cell-based, human; settings: HeLa cells co-transfected with APP and M2, inhibitor included in the media
recombinant memapsin 2 [2] = biological target: T1, recombinant memapsin 2 (Homo sapiens, UniProt P56817); assay: Inhibition of recombinant memapsin 2, synthetic fluorogenic peptide substrate; type: biochemical; settings: recombinant memapsin 2, synthetic fluorogenic peptide substrate (FIG. 4A/4B)
Target sequence in this assay (P56817 46-457 limits assumed): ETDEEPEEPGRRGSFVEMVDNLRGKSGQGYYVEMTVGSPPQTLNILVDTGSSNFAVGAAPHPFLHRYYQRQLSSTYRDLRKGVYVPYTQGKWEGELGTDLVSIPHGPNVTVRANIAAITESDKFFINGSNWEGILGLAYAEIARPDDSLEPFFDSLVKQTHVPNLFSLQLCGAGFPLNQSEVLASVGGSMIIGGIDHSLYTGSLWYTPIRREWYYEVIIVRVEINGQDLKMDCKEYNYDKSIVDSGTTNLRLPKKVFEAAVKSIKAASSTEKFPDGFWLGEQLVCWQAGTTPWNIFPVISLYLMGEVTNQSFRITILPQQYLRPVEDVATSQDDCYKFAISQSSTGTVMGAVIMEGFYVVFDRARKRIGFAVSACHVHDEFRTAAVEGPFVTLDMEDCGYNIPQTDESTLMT
From the text: The substrate used was a synthetic fluorogenic peptide substrate.

recombinant memapsin 2 [3] = biological target: T1, recombinant memapsin 2; assay: Value; design: expressed in E. coli in two different lengths, both without the transmembrane region; 15 N-terminal residues from vector pET11a (T7 protein leader) (N); made in house; host or cells: E. coli BL21 (DE3)
Protocol: Table printed on a drawing sheet, FIG. 4A
Footnotes: [Mep2] = 0.47 µM / [Fluo. Substrate] = 29.9 µM / Buffer: Na Acetate 0.1 M, 5% DMSO, pH 4.5 at 37°C / Excitation at 350 nm / Emission at 490 nm
The patent's description of the figure: FIG. 4A is a graph of the inhibition of recombinant memapsin 2 by OM99-1.
First copying reader's note: Fit parameter (Ki) of the inhibition curve of memapsin 2 by OM99-1 plotted above the table; no unit is printed for Ki, and the plot's concentration axis is in M.
Where the first naming reader finds the target: description_of_the_figure: FIG. 4A is a graph of the inhibition of recombinant memapsin 2 by OM99-1.
Target sequence in this assay (P56817 46-457): as the sequence (P56817 46-457 limits assumed) above

M2pd [4] = biological target: T2, M2pd (Homo sapiens, UniProt P56817); assay: Inhibition of M2pd by pepstatin A; type: biochemical
T2 construct: 15 N-terminal residues from vector pET11a (T7 protein leader) (N, cleaved yes); made in house

M2pd [5] = biological target: T2, M2pd; assay: Steady-state kinetics of hydrolysis of peptide substrates by M2pd; type: biochemical; settings: peptide substrate hydrolysed by M2pd, pH 4.0
Protocol: Incubation in 0.1M sodium acetate, pH 4.0, for 16 h at 22° C. auto-catalytically converted pro-M2pd to M2pd . For initial hydrolysis tests, two synthetic peptides were separately incubated with pro-M2pd in 0.1M Na acetate, pH 4.0 for different periods ranging from 2 to 18 h. The incubated samples were subjected to LC/MS for the identification of the hydrolytic products. For kinetic studies, the identified HPLC (Beckman System Gold) product peaks were integrated for quantitation. The Km and kcat values for presenilin 1 and Swedish APP peptides (Table 1) were measured by steady-state kinetics. The individual Km and Kcat values for APP peptide could not be measured accurately by standard methods, so its kcat/Km value was measured by competitive hydrolysis of mixed substrates against presenilin 1 peptide (Fersht, A. “Enzyme Structure and Mechanism”, 2nd Ed., W. H. Freeman and Company, New York. (1985)).

T2 sequence (P56817 14-419 limits assumed): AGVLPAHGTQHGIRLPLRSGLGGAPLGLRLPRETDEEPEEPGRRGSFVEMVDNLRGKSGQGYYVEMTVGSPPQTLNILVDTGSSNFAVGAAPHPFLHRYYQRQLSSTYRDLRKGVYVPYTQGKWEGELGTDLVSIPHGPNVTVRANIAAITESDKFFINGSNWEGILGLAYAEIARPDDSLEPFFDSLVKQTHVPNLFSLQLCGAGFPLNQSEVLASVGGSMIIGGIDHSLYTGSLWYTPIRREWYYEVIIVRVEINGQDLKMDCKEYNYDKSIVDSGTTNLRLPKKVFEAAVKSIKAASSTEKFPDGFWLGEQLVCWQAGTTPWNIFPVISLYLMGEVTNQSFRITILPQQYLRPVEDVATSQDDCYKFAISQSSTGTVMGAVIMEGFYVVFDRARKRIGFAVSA

CO/C1=C\C(C)=C\[C@@H](C)[C@@H](O)[C@@H](C)C/C(C)=C/C=C/[C@H](OC)[C@@H]([C@@H](C)[C@@H](O)[C@H](C)[C@@]2(O)C[C@@H](O)[C@H](C)[C@@H](C(C)C)O2)OC1=O [Bafilomycin A1]
production of APP beta N- and beta C-fragments [1]: abolished the production of both APP fragments

CC(C)C[C@H](NC(=O)[C@H](CC(N)=O)NC(=O)[C@@H](N)C(C)C)[C@@H](O)C[C@@H](C)C(=O)N[C@@H](C)C(=O)N[C@@H](CCC(=O)O)C(=O)N[C@@H](Cc1ccccc1)C(=O)O [OM99-1, Val-Asn-Leu*Ala-Ala-Glu-Phe] (HELM PEPTIDE1{V.N.[CC(C)C[C@H](N[*:1])[C@@H](O)C[C@@H](C)C(=O)[*:2]].A.E.F}$$$$V2.0)
Ki (recombinant memapsin 2 [2]): 0.03 µM | Ki (recombinant memapsin 2 [3]): 0.0684 µM

CC(C)CC(=O)N[C@H](C(=O)N[C@H](C(=O)N[C@@H](CC(C)C)[C@@H](O)CC(=O)N[C@@H](C)C(=O)N[C@@H](CC(C)C)[C@@H](O)CC(=O)O)C(C)C)C(C)C [Pepstatin A] (Isovaleryl-VV[Sta]A[Sta]-OH)
IC50 (M2pd [4]): ~300 µM

SEVNLDAEFR [Swedish APP peptide, SEVNL/DAEFR]
Km (M2pd [5]): 1 mM

SVNM/AEGD (SVNMAEGD) [presenilin 1, substrate peptide derived from the processing site of presenilin 1]
Km (M2pd [5]): 15.2 mM | kcat (M2pd [5]): 0.67 s⁻¹
